Reference: ChEMBL document CHEMBL3046931, “Synthesis, antioxidant, and antitumor evaluation of certain new N-substituted-2-amino-1,3,4-thiadiazoles” (Med Chem Res, 2013)

What was measured:
[1] = Pro-oxidant activity assessed as bleomycin-Fe3+ complex-induced DNA damage at 1 mg/ml after 1 hr; type: ADME
[2] = Antioxidant activity assessed as inhibition of ABTS free radical formation at 1 mg/ml by spectroscopic analysis (reference value: 0%); type: functional
[3] = tested on: Ehrlich; assay: In vitro antitumor activity against Mus musculus (mouse) Ehrlich ascites cell assessed as dead tumor cells by trypan blue exclusion test; type: functional
[4] = Antioxidant activity assessed as inhibition of ABTS free radical formation at 2 mM by spectroscopic analysis (reference value: 0%); type: functional

| SMILES | OD [1] | inhibition [2] [%] | ED25 [3] [microg/cm3] | ED50 [3] [microg/cm3] | ED100 [3] [microg/cm3] | inhibition [4] [%] |
| --- | --- | --- | --- | --- | --- | --- |
| N#C/C(=C\c1ccc(N2CCCCC2)cc1)C(=O)Nc1nncs1 | 0.114 | 28.7 |  |  |  |  |
| O=C(CNc1nncs1)Nc1nncs1 |  |  | 9.4 | 18.9 | 39.1 |  |
| Clc1ccc(C/N=c2/scnn2Cc2ccc(Cl)cc2)cc1 | 0.121 | 38 | 7.4 | 16 | 29 |  |
| Cc1cc(C)c2c(NN/C=C(\C#N)C(=O)Nc3nncs3)n[nH]c2n1 | 0.109 | 51.8 | 5 | 10.2 | 19 |  |
| N#CCC(=O)Nc1nncs1 | 0.08 | 70.9 |  |  |  |  |
| O=C1O[C@H]([C@@H](O)CO)C(O)=C1O [ASCORBIC ACID] | 0.098 |  |  |  |  | 88.5 |
| CC1=NN(c2ccccc2)C(=O)/C1=C/c1ccc(Nc2nncs2)cc1 | 0.105 | 41.6 | 8.8 | 17 | 31 |  |
| Cc1cc(C)c2c(n1)nn1c(N)c(C(=O)Nc3nncs3)nnc21 |  |  | 25 | 48.2 | 80.7 |  |
| Cl/C(=N\c1nncs1)c1ccc(Cl)cc1 |  |  | 6.9 | 13 | 6.9 |  |
| Clc1ccc(CNc2nncs2)cc1 | 0.108 | 0.354 |  |  |  |  |
| Nc1n[nH]cc1C(=O)Nc1nncs1 | 0.102 | 18.9 |  |  |  |  |
| N#CSCC(=O)Nc1nncs1 | 0.099 | 25.7 |  |  |  |  |
| CN(C)/C=C(\C#N)C(=O)Nc1nncs1 | 0.127 | 23.7 | 7.8 | 14.1 | 26 |  |
| O=C(CN1CCN(CC(=O)Nc2nncs2)CC1)Nc1nncs1 |  |  | 8.7 | 18 | 37 |  |
| Nc1nnc(SCC(=O)Nc2nncs2)s1 | 0.101 | 20.7 | 14.4 | 27 | 42.5 |  |
| Clc1ccc(-c2nnnn2-c2nncs2)cc1 |  |  | 12 | 23 | 41 |  |
| Nc1nncs1 | 0.09 | 28.5 | 37 | 56 | 92.9 |  |
| O=C(CCl)Nc1nncs1 | 0.102 | 27.1 | 7.8 | 16 | 28 |  |
| O=c1[nH]cc(F)c(=O)[nH]1 [FLUOROURACIL] |  |  | 40 | 63 | 97 |  |
| CC1=NN(c2ccccc2)C(=O)/C1=N\Nc1nncs1 |  |  | 10 | 21 | 42.1 |  |
| O=Cc1ccc(Nc2nncs2)cc1 | 0.1 | 26.5 | 8.7 | 17.9 | 38.3 |  |
| O=C(Nc1nncs1)c1ccc(Cl)cc1 | 0.1 | 26.5 | 11 | 24 | 52 |  |
| O=C(CN1CCN(c2ccccc2)CC1)Nc1nncs1 | 0.096 | 25.7 | 13 | 24 | 46.1 |  |
| c1nnc(/N=N/Nc2nncs2)s1 | 0.103 | 24.5 | 19.3 | 33 | 61.5 |  |
